The values below come from US10617734B2, “STAT3 and ERK signal pathway inhibitor comprising mogrosides and analogs thereof” (BEIJING UNIVERSITY OF AGRICULTURE, priority 2014, dated 2020).

Assay [1] relates to lymphoma U937 cells, human melanoma A875 cells and leukemia cells K562. Description: Tests of examples 3 to 8 taken together. It counts as cell-based. As to conditions: Western Blotting, cell cycle, apoptosis, Hoechst, MTT.
Assay [2] has as its system prostate cancer cells, renal carcinoma cells, head and neck squamous cell carcinoma cells, lung cancer cells, ovarian cancer cells, breast cancer cells …. Description: Tests of examples 3 to 8 on further cancer cells. The conditions noted are these: pancreatic, liver and colon cancer cells. It counts as cell-based.

As to `C[C@H](CC[C@@H](O[C@@H]1O[C@H](CO[C@@H]2O[C@H](CO)[C@@H](O)[C@H](O)[C@H]2O)[C@@H](O)[C@H](O)[C@H]1O[C@@H]1O[C@H](CO)[C@@H](O)[C@H](O)[C@H]1O)C(C)(C)O)[C@H]1CC[C@@]2(C)[C@H]3CC=C4[C@H](CC[C@H](O[C@@H]5O[C@H](CO[C@@H]6O[C@H](CO)[C@@H](O)[C@H](O)[C@H]6O)[C@@H](O)[C@H](O)[C@H]5O[C@@H]5O[C@H](CO)[C@@H](O)[C@H](O)[C@H]5O)C4(C)C)[C@]3(C)[C@H](O)C[C@]12C` [Mogroside VI], the “results of the tests of examples 3 to 8” value in assay [1] was “identical to those of Mogrol I E1 and Mogrol II A2”. The “results of the tests of examples 3 to 8 on further cancer cells” value (from here on “results … on further cancer cells”) in assay [2] is “identical to the results of the lymphoma U937 cells”.
For the molecule `C[C@H](CC[C@@H](O[C@@H]1O[C@H](CO[C@@H]2O[C@H](CO)[C@@H](O)[C@H](O)[C@H]2O)[C@@H](O)[C@H](O)[C@H]1O[C@@H]1O[C@H](CO)[C@@H](O)[C@H](O)[C@H]1O)C(C)(C)O)[C@H]1CC[C@@]2(C)[C@@H]3CC=C4[C@@H](CC[C@H](O[C@@H]5O[C@H](CO[C@@H]6O[C@H](CO)[C@@H](O)[C@H](O)[C@H]6O)[C@@H](O)[C@H](O)[C@H]5O)C4(C)C)[C@]3(C)[C@H](O)C[C@]12C` [Mogroside V], the “results of the tests of examples 3 to 8” value in assay [1] was “identical to those of Mogrol I E1 and Mogrol II A2”. In addition, the “results … on further cancer cells” value in assay [2] is given as “identical to the results of the lymphoma U937 cells”.
Mogrol III: the “results of the tests of examples 3 to 8” value in assay [1] is “identical to those of Mogrol I E1 and Mogrol II A2”. Further, in assay [2], the “results … on further cancer cells” value was “identical to the results of the lymphoma U937 cells”.
Turning to Mogrol IV, the “results of the tests of examples 3 to 8” value in assay [1] is “identical to those of Mogrol I E1 and Mogrol II A2”. The “results … on further cancer cells” value in assay [2] is reported as “identical to the results of the lymphoma U937 cells”.
